# Reference: patent US20060084789A1, “Immunotherapeutic and immunoprphylactic reagents” (priority 2002, published 2006)
# How the values were obtained:
# Type in all cases: cell-based, human
# [1] = tested on: RGP-specific TCL; experiment: TCL proliferation assay (3H-thymidine incorporation, stimulation index); conditions: Lol p 1 series (Table 3), peptides 10 μg/ml, RGP and Lol p 1 maximal response
# In short: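 Short-term TCL raised from PBMC with 25 or 50 μg/ml RGP extract plus irradiated autologous APC and IL-2, rested 6–7 days. 5×10^4 T cells stimulated 3 days with allergen and irradiated autologous PBMC, 16 h ^3H-thymidine pulse; SI = antigen cpm/unstimulated cpm, positive if ≧2.5, highest-proliferation concentration reported.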
# [2] = tested on: IL-5 production by RGP-specific TCL; experiment: IL-5 detection in culture supernatants by sandwich ELISA; conditions: Subject 15 TCL; Lol p 1 peptides; supernatant at 48 h; UD undetectable, limit of detection 10 pg/ml
# Description: (§1) Cytokine Detection in Culture Supernatants
# (§2) Supernatants of triplicate cultures were harvested and pooled from T cell proliferation assay cultures at 48 hours for the detection of IL-5 and IFN-γ production by sandwich ELISA. Briefly white Maxisorp (NUNC, Roskilde, Denmark) ELISA plates were coated with capture mAb (anti-IL-5, Pharmingen, San Diego, Calif., USA; anti-IFN-γ, Endogen, Woburn, Mass. USA) overnight at 4° C. Plates were then washed and wells blocked with 1% Bovine Serum Albumin/PBS for 1 hour at room temperature. Following washing, test samples (neat) and serial dilutions of recombinant human IL-5 (Pharmingen, USA) or IFN-γ (Endogen, USA) (for the construction of standard curves) were added and incubated overnight at 4° C. Following washing, plates were incubated with biotinylated detecting mAb (anti-IL-5, Pharmingen, USA; […], Endogen, USA) for 1 hour at room temperature. Plates were then washed and incubated with streptavidin-peroxidase (Amersham, Piscataway, N.J., USA) for 30 minutes at room temperature. Following washing, a chemiluminescent substrate (Du Pont, Wilmington, Del., USA) was added to each well and plates read in a Lumicount microplate Glow Luminometer (Packard Instrument Company, Meriden, Conn., USA), 0.5 seconds/well, automatic sensitivity setting. Standard curve construction and determination of test sample cytokine levels were performed using Packard I-smart software. The limits of detection for IL-5 and IFN-γ were 10 pg/ml and 2 pg/ml respectively.
# [3] = tested on: IFN-γ production by RGP-specific TCL; experiment: IFN-γ detection in culture supernatants by sandwich ELISA; conditions: Lol p 1 peptides, supernatant at 48 h, UD undetectable, limit of detection 2 pg/ml
# Description: as §1, §2
sequence,measurement,setting,value
GHAFGSMAKKGEEQNVRSAG (Lolium perenne) [Lol p 1 peptide 109-128],"Proliferative response, stimulation index",[1]; Subject 2 TCL,12.9
same,"Proliferative response, stimulation index",[1]; Subject 3 TCL,2.8
same,"Proliferative response, stimulation index",[1]; Subject 15 TCL,7.1
same,"Proliferative response, stimulation index",[1]; Subject 16 TCL,3.0
same,"Proliferative response, stimulation index",[1]; Subject 17 TCL,2.7
same,"Proliferative response, stimulation index",[1]; Subject 19 TCL,12.0
same,"IL-5, proliferation inducing peptides",[2],160.7 pg/mL
same,"IFN-γ, proliferation inducing peptides",[3]; Subject 3 TCL,32.1 pg/mL
same,"IFN-γ, proliferation inducing peptides",[3]; Subject 15 TCL,143.3 pg/mL
same,"IFN-γ, proliferation inducing peptides",[3]; Subject 16 TCL,13.8 pg/mL
same,"IFN-γ, proliferation inducing peptides",[3]; Subject 19 TCL,8.0 pg/mL
IAPYHFDLSGHAFGSMAKKG (Lolium perenne) [Lol p 1 peptide 100-119],"Proliferative response, stimulation index",[1]; Subject 2 TCL,9.4
same,"Proliferative response, stimulation index",[1]; Subject 4 TCL,6.8
same,"Proliferative response, stimulation index",[1]; Subject 11 TCL,7.9
same,"Proliferative response, stimulation index",[1]; Subject 15 TCL,9.2
same,"Proliferative response, stimulation index",[1]; Subject 19 TCL,3.7
same,"IL-5, proliferation inducing peptides",[2],275.6 pg/mL
same,"IFN-γ, proliferation inducing peptides",[3]; Subject 15 TCL,167.1 pg/mL
